Experiments:
human GOAT = molecular target: T1, human GOAT (Homo sapiens, UniProt Q96T53); experiment: In vitro cell free human GOAT enzymatic assay; assay type: biochemical; conditions: GOAT-His/sf9 microsomal membrane enzyme preparation; ELISA of acyl-ghrelin; n=5
T1 construct: His; made in house; host or cells: Sf9 insect cells (baculovirus, pAN51 vector); used as microsomal membrane preparation
T1 sequence (Q96T53 1-435): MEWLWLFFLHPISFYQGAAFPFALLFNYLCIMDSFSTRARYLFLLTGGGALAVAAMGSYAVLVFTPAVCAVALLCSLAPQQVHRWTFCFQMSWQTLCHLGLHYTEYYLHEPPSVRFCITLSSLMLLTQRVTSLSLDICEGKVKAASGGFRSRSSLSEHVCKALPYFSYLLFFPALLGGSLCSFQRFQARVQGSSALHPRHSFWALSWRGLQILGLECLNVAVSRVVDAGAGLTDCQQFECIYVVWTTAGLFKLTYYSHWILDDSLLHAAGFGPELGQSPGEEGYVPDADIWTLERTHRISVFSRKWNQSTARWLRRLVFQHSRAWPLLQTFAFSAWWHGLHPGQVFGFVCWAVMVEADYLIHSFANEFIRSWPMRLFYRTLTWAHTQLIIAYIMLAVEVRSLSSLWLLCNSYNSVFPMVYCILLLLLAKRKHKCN
Protocol: Human GOAT gene (Accession number: NM_001100916) is subcloned to pAN51 baculoviral expression vector. Baculovirus stock is prepared following the Bac-to-Bac Protocol provided by the vendor, Invitrogen, California, USA. Five milliliters of human GOAT baculoviral stock are added to 500 mL Sf9 cells in HyQ SFX-Insect™ media (HyClone catalog number SH30278.02) at the density of 1×10^6 cells per milliliter in a 2 L Erlenmeyer flask. The flask with human GOAT gene infected Sf9 cells is put on a plate shaker at 120 rpm at 28° C. for 48 h. After 48 h incubation, cells are centrifuged at 1,000×g for 10 min at 4° C. The cell pellets are collected and stored at −80° C. in a freezer until ready for further processing.
One gram cell pellets are suspended in 9 mL chilled homogenization buffer (50 mM Tris-HCl, 250 mM sucrose, adjusted to pH 7.5, and sterile filtered through 0.2 μm Millipore filter). The cell suspension is transferred to a Dounce glass homogenizer. Cell pellets are homogenized with 40 strokes on ice. The homogenate is centrifuged at 3,000 rpm in a Beckman swing bucket rotor at 4° C. for 10 min to remove unbroken cells. […]
Prepare ELISA plates (STREPTAVIDIN SPECTRAPLATE™ 384, Perkin Elmer) by blocking with 2% Heat-Inactivated FBS in PBS (40 μL) (Invitrogen) blocking buffer for 3 h. […] Read plates at 450 nm using an Envision Multilabel plate reader. […]

GOAT enzyme = molecular target: T2, GOAT enzyme (Mus musculus, UniProt P0C7A3); experiment: In vivo dose dependent 3 day BID study for GOAT inhibitor (plasma AG and UAG by ELISA); parameters: species or system male C57BL/6 mice; conditions: 3 days; for AG (% of control) / AG/Total-ghrelin (% of vehicle control) / UAG (% of vehicle control) / increase of UAG: plasma; for increase of UAG / decrease of plasma AG: vs vehicle; for reduction in AG to total ghrelin ratio: vs vehicle-treated control animals
T2 construct: endogenous in cells; host or cells: male C57BL/6 mice (whole animal, oral dosing; plasma AG/UAG read-out)
T2 sequence (P0C7A3 1-435): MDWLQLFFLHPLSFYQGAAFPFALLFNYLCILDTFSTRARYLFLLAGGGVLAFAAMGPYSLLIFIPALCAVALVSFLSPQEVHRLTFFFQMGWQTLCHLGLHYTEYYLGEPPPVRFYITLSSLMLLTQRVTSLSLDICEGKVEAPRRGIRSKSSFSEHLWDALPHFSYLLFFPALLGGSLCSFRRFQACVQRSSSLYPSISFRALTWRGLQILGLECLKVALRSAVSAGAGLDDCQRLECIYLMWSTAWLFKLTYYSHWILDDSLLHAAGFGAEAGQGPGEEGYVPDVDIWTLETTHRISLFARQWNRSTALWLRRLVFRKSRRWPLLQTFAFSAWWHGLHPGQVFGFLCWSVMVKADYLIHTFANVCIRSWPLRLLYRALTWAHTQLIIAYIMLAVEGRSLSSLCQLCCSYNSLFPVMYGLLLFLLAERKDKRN
Protocol: Comparing the change in the ratio of AG to total ghrelin in the compound treated group and that of the vehicle treated group reflects the degree of GOAT enzyme inhibition in vivo, due to the dynamic processing of UAG to AG by the GOAT enzyme. In the in vivo pharmacodynamic studies herein, the levels of AG and UAG in plasma and stomach in the vehicle and compound treated groups are measured by ELISA specifically to these two analytes. The total ghrelin level of each sample is computed as the sum of AG and UAG by these ELISA measurements. The ratio of AG to total ghrelin is defined by the level of AG in each sample divided by the level of total ghrelin in the same sample. The levels of AG, UAG and ratio of AG to total ghrelin in the vehicle treated group is computed and set as 100%. The relative change of these parameters in the compound treated group is then computed to determine the effectiveness of the test compound.
Purchase male C57BL/6 mice from Harlan (Indianapolis, Ind.) at 9 weeks of age. House the mice individually in a temperature-controlled (24° C.) facility with a 12 h light/dark cycle (lights on 2200 h), and allow free access to a standard rodent chow (diet 2014, Harlan) and water. Typically, use the mice when they are 10-13 weeks of age at the time of the study. On day 0 of the experiment, randomize the mice into treatment groups (N=7/group) so each group has similar mean body weights. On day 1 and day 2, treat the animals with vehicle (1% hydroxyethylcellulose, 0.25% Tween 80, 0.05% antifoam) or test compound prepared in the vehicle as suspension at various dosages by oral gavage at 7 am and 7 pm. On day 3, fast the animals, move them into clean cages and dose with vehicle or the test compound again at 8 am by oral gavage. That same day at 1 pm, sacrifice the animals by decapitation to collect blood. For details of blood collection and plasma treatments see Blood collection and Extraction of Ghrelin from Plasma section below.
Collect approximately 600 μL blood into a pre-weighed EDTA tube containing 600 μL (defined as Vpreservative) freshly-prepared preservative (4 mM PEFABLOC® [4-(2-aminoethyl) benzenesulfonyl fluoride hydrochloride], 72 mM NaCl, 58 mM NaF, 0.032 N hydrochloric acid, pH 3.0) and mix immediately. Weigh the tube again and keep on ice. To accurately determine the exact blood volume of each sample using this blood collection procedure, the weight of the blood for each mouse is computed using the following equation: Weight of Blood=(Weight of the tube containing Blood+preservative)−(Weight of the tube containing preservative) Blood volume(Vblood)=(Weight of blood)/1.06
Within 15 minutes after the blood collection, samples are centrifuged at 5000 rpm at 4° C. for 8 min Remove plasma (650 μL) to a 5 mL glass tube containing 1 N hydrochloric acid (65 μL), mix and keep on ice.
AG and UAG are extracted from plasma using SEP-PAK®_C18 column to remove interference prior to performing the ELISA. The solid phase extraction of AG and UAG peptides by SEP-PAK®_C18 columns can be performed on a vacuum manifold (Waters Corp) or using a peristaltic pump. The sample SEP-PAK®_column extraction procedure is independently applied to the plasma sample obtained from each individual mouse. The general extraction protocol is described as follows.
All solutions used for the entire protocol of the SEP-PAK® column extraction should be at ice cold condition. Wet SEP-PAK®_columns (WAT054960, Waters Corp, Milford Mass.) with 99.9% ACN/0.1% TFA (1 mL of solution of 100 mL ACN/0.1 mL TFA). […] Once liquid is removed from the column, stop the pressure. Equilibrate the columns with 3% ACN/0.1% TFA (1 mL of 97 mL water, 3 mL ACN, 0.1 mL TFA). […] Dilute approximately 650 μL acidified plasma (defined as Vplasma added to column) to 1.4 mL ice cold 0.1% TFA. Load all diluted acidified plasma from the previous step onto the columns. […] Wash with 3% ACN/0.1% TFA (0.9 mL of 97 mL water, 3 mL ACN, 0.1 mL TFA). […] Repeat the wash two more times. […]

**Q.** For Cc1nc(N)c(CCC2CCN(C(=O)[C@H](C)NC(=O)C3CC3)CC2)c(Cl)n1 [Example 1, N-[(1S)-2-[4-[2-(4-Amino-6-chloro-2-methyl-pyrimidin-5-yl)ethyl]-1-piperidyl]-1-methyl-2-oxo-ethyl]cyclopropanecarboxamide], which IC50 (human GOAT) is on record?
**A.** ~192 nM

**Q.** And the “AG (% of control)” value (GOAT enzyme; 0.3 mg/kg oral gavage BID)?
**A.** 101 ± 025 % of control

**Q.** And the “AG/Total-ghrelin (% of vehicle control)” value (GOAT enzyme; 0.3 mg/kg oral gavage BID)?
**A.** 61 ± 04 % of vehicle control

**Q.** And the “UAG (% of vehicle control)” value (GOAT enzyme; 0.3 mg/kg oral gavage BID)?
**A.** 224 ± 035 % of vehicle control

**Q.** And the “increase of UAG” value (GOAT enzyme; 0.3 mg/kg oral gavage BID)?
**A.** 2.24 fold

**Q.** What about the “decrease of plasma AG” value (GOAT enzyme; 0.3 mg/kg oral gavage BID) of the same compound?
**A.** −1%

**Q.** And the “reduction in AG to total ghrelin ratio” value (GOAT enzyme; 0.3 mg/kg oral gavage BID)?
**A.** 39%

**Q.** And the “AG (% of control)” value (GOAT enzyme; 1 mg/kg oral gavage BID)?
**A.** 95 ± 018 % of control

**Q.** And the “AG/Total-ghrelin (% of vehicle control)” value (GOAT enzyme; 1 mg/kg oral gavage BID)?
**A.** 46 ± 011 % of vehicle control

**Q.** What about the “UAG (% of vehicle control)” value (GOAT enzyme; 1 mg/kg oral gavage BID) of the same compound?
**A.** 282 ± 045 % of vehicle control

**Q.** And the “increase of UAG” value (GOAT enzyme; 1 mg/kg oral gavage BID)?
**A.** 2.82 fold

**Q.** What about the “decrease of plasma AG” value (GOAT enzyme; 1 mg/kg oral gavage BID) of the same compound?
**A.** 5%

**Q.** What about the “reduction in AG to total ghrelin ratio” value (GOAT enzyme; 1 mg/kg oral gavage BID) of the same compound?
**A.** 54%

**Q.** And the “AG (% of control)” value (GOAT enzyme; 3 mg/kg oral gavage BID)?
**A.** 55 ± 06 % of control

**Q.** And the “AG/Total-ghrelin (% of vehicle control)” value (GOAT enzyme; 3 mg/kg oral gavage BID)?
**A.** 29 ± 04 % of vehicle control

**Q.** And the “UAG (% of vehicle control)” value (GOAT enzyme; 3 mg/kg oral gavage BID)?
**A.** 253 ± 031 % of vehicle control

**Q.** And the “increase of UAG” value (GOAT enzyme; 3 mg/kg oral gavage BID)?
**A.** 2.53 fold

**Q.** And the “decrease of plasma AG” value (GOAT enzyme; 3 mg/kg oral gavage BID)?
**A.** 45%

**Q.** What about the “reduction in AG to total ghrelin ratio” value (GOAT enzyme; 3 mg/kg oral gavage BID) of the same compound?
**A.** 71%

**Q.** What about the “AG (% of control)” value (GOAT enzyme; 10 mg/kg oral gavage BID) of the same compound?
**A.** 52 ± 010 % of control

**Q.** And the “AG/Total-ghrelin (% of vehicle control)” value (GOAT enzyme; 10 mg/kg oral gavage BID)?
**A.** 23 ± 04 % of vehicle control

**Q.** What about the “UAG (% of vehicle control)” value (GOAT enzyme; 10 mg/kg oral gavage BID) of the same compound?
**A.** 289 ± 044 % of vehicle control

**Q.** What about the “increase of UAG” value (GOAT enzyme; 10 mg/kg oral gavage BID) of the same compound?
**A.** 2.89 fold

**Q.** And the “decrease of plasma AG” value (GOAT enzyme; 10 mg/kg oral gavage BID)?
**A.** 48%

**Q.** What about the “reduction in AG to total ghrelin ratio” value (GOAT enzyme; 10 mg/kg oral gavage BID) of the same compound?
**A.** 77%
